# Measured values taken from patent publication US10301295B2, “Herbicidal compounds” (Syngenta Participations AG, priority 2014, dated 2019).
# Like-named read-outs stand apart in the source and are kept apart here.
# Columns and labels:
# Format in all cases: in vivo
# wheat = assay: Post-emergence herbicidal activity against cereal crops (wheat) +/- safener, crop selectivity; conditions: 100%=total damage to plant, 0%=no damage; for Post-emergence herbicidal activity against wheat (percentage phytotoxicity), +CQC: 250 g/ha, plus safener cloquintocet-mexyl (CQC) applied at 50 g/ha; for percent phytotoxicity (crop damage) to wheat at 250 g/ha: Triticum aestivum, 360 h, without safener, read-out: Post-emergence herbicidal activity against wheat (percentage phytotoxicity), Wheat - CQC
# How it was run: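 Test plants raised in pots in a glasshouse (24/18 °C warm or 20/16 °C cool species day/night, 16 h light, 65% humidity) and treated post-emergence about 12 days after sowing. Visual percentage phytotoxicity scored 15 days after application (0% = no damage, 100% = total damage).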
# [1] = system: Alopecurus myosuroides (ALOMY); assay: Glasshouse assay for herbicidal activity, pre-/post-emergence (percentage phytotoxicity); conditions: Alopecurus myosuroides, Rate 250 g/ha, 100%=total damage, 0%=no damage
# How it was run: (§1)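 Percentage phytotoxicity was assessed visually, 100% meaning total plant damage and 0% none, at 20 days after application for pre-emergence and 15 days for post-emergence. Plants were potted in standard soil and treated after 1 day or about 12 days of growth.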
# [2] = system: Echinochloa crus-galli (ECHCG); assay: as above; conditions: Echinochloa crus-galli, Rate 250 g/ha, 100%=total damage, 0%=no damage
# How it was run: as §1
# Lolium perenne (LOLPE) = assay: as above; conditions: Lolium perenne, Rate 250 g/ha, 100%=total damage, 0%=no damage
# How it was run: as §1
# Avena fatua (AVEFA) = assay: as above; conditions: Avena fatua, Rate 250 g/ha, 100%=total damage, 0%=no damage
# How it was run: as §1
# [3] = 360 h, post-emergence, visual assessment 15 DAA, read-out: Post-emergence herbicidal activity (percentage phytotoxicity), ALOMY POST
# [4] = 480 h, pre-emergence, visual assessment 20 DAA, read-out: Pre-emergence herbicidal activity (percentage phytotoxicity), ALOMY PRE
# [5] = post-emergence, 360 h, post-emergence, visual assessment 15 DAA, read-out: Post-emergence herbicidal activity (percentage phytotoxicity), ECHCG POST
# [6] = pre-emergence, 480 h, pre-emergence, visual assessment 20 DAA, read-out: Pre-emergence herbicidal activity (percentage phytotoxicity), ECHCG PRE
# [7] = post-emergence, 360 h, post-emergence, visual assessment 15 DAA, read-out: Post-emergence herbicidal activity (percentage phytotoxicity), LOLPE POST
# [8] = pre-emergence, 480 h, pre-emergence, visual assessment 20 DAA, read-out: Pre-emergence herbicidal activity (percentage phytotoxicity), LOLPE PRE
# [9] = post-emergence, 360 h, post-emergence, visual assessment 15 DAA, read-out: Post-emergence herbicidal activity (percentage phytotoxicity), AVEFA POST
# [10] = pre-emergence, 480 h, pre-emergence, visual assessment 20 DAA, read-out: Pre-emergence herbicidal activity (percentage phytotoxicity), AVEFA PRE
compound,measurement,setting,value
Cc1cc(C)c(C2C(=O)CC(CCNS(=O)(=O)c3ccccc3F)C2=O)c(C)c1 (centres unmarked) [Compound A76],"Post-emergence herbicidal activity against wheat (percentage phytotoxicity), +CQC",wheat,0%
same,percent phytotoxicity (crop damage) to wheat at 250 g/ha,wheat,0%
same,pest or weed control at 250 g/ha,[1]; [3],20%
same,pest or weed control at 250 g/ha,[1]; [4],30%
same,pest or weed control at 250 g/ha,[2]; [5],40%
same,pest or weed control at 250 g/ha,[2]; [6],40%
same,pest or weed control at 250 g/ha,Lolium perenne (LOLPE); [7],60%
same,pest or weed control at 250 g/ha,Lolium perenne (LOLPE); [8],70%
same,pest or weed control at 250 g/ha,Avena fatua (AVEFA); [9],20%
same,pest or weed control at 250 g/ha,Avena fatua (AVEFA); [10],0%
Cc1cc(C)c(C2C(=O)CC(CCNS(=O)(=O)C(C)C)C2=O)c(C)c1 (centres unmarked) [Compound A77],"Post-emergence herbicidal activity against wheat (percentage phytotoxicity), +CQC",wheat,10%
same,percent phytotoxicity (crop damage) to wheat at 250 g/ha,wheat,80%
same,pest or weed control at 250 g/ha,[1]; [3],80%
same,pest or weed control at 250 g/ha,[1]; [4],100%
same,pest or weed control at 250 g/ha,[2]; [5],70%
same,pest or weed control at 250 g/ha,[2]; [6],70%
same,pest or weed control at 250 g/ha,Lolium perenne (LOLPE); [7],80%
same,pest or weed control at 250 g/ha,Lolium perenne (LOLPE); [8],80%
same,pest or weed control at 250 g/ha,Avena fatua (AVEFA); [9],80%
same,pest or weed control at 250 g/ha,Avena fatua (AVEFA); [10],70%
Cc1cc(C)c(C2C(=O)CC(CCNS(=O)(=O)c3ccc(Cl)c(Cl)c3)C2=O)c(C)c1 (centres unmarked) [Compound A78],"Post-emergence herbicidal activity against wheat (percentage phytotoxicity), +CQC",wheat,0%
same,percent phytotoxicity (crop damage) to wheat at 250 g/ha,wheat,0%
same,pest or weed control at 250 g/ha,[1]; [3],40%
same,pest or weed control at 250 g/ha,[1]; [4],60%
same,pest or weed control at 250 g/ha,[2]; [5],30%
same,pest or weed control at 250 g/ha,[2]; [6],20%
same,pest or weed control at 250 g/ha,Lolium perenne (LOLPE); [7],60%
same,pest or weed control at 250 g/ha,Lolium perenne (LOLPE); [8],70%
same,pest or weed control at 250 g/ha,Avena fatua (AVEFA); [9],80%
same,pest or weed control at 250 g/ha,Avena fatua (AVEFA); [10],0%
COc1ccc(S(=O)(=O)NCCC2CC(=O)C(c3c(C)cc(C)cc3C)C2=O)cc1 (centres unmarked) [Compound A79],"Post-emergence herbicidal activity against wheat (percentage phytotoxicity), +CQC",wheat,0%
same,percent phytotoxicity (crop damage) to wheat at 250 g/ha,wheat,30%
same,pest or weed control at 250 g/ha,[1]; [3],30%
same,pest or weed control at 250 g/ha,[1]; [4],30%
same,pest or weed control at 250 g/ha,[2]; [5],40%
same,pest or weed control at 250 g/ha,[2]; [6],50%
same,pest or weed control at 250 g/ha,Lolium perenne (LOLPE); [7],60%
same,pest or weed control at 250 g/ha,Lolium perenne (LOLPE); [8],70%
same,pest or weed control at 250 g/ha,Avena fatua (AVEFA); [9],60%
same,pest or weed control at 250 g/ha,Avena fatua (AVEFA); [10],10%
Cc1cc(C)c(C2C(=O)CC(CCNS(=O)(=O)c3ccccc3Cl)C2=O)c(C)c1 (centres unmarked) [Compound A80],"Post-emergence herbicidal activity against wheat (percentage phytotoxicity), +CQC",wheat,0%
same,percent phytotoxicity (crop damage) to wheat at 250 g/ha,wheat,0%
same,pest or weed control at 250 g/ha,[1]; [3],10%
same,pest or weed control at 250 g/ha,[1]; [4],10%
same,pest or weed control at 250 g/ha,[2]; [5],0%
same,pest or weed control at 250 g/ha,[2]; [6],40%
same,pest or weed control at 250 g/ha,Lolium perenne (LOLPE); [7],60%
same,pest or weed control at 250 g/ha,Lolium perenne (LOLPE); [8],60%
same,pest or weed control at 250 g/ha,Avena fatua (AVEFA); [9],0%
same,pest or weed control at 250 g/ha,Avena fatua (AVEFA); [10],0%
Cc1cc(C)c(C2C(=O)CC(CCNS(=O)(=O)c3ccc(Cl)cc3)C2=O)c(C)c1 (centres unmarked) [Compound A81],"Post-emergence herbicidal activity against wheat (percentage phytotoxicity), +CQC",wheat,0%
same,percent phytotoxicity (crop damage) to wheat at 250 g/ha,wheat,0%
same,pest or weed control at 250 g/ha,[1]; [3],60%
same,pest or weed control at 250 g/ha,[1]; [4],60%
same,pest or weed control at 250 g/ha,[2]; [5],60%
same,pest or weed control at 250 g/ha,[2]; [6],70%
same,pest or weed control at 250 g/ha,Lolium perenne (LOLPE); [7],60%
same,pest or weed control at 250 g/ha,Lolium perenne (LOLPE); [8],70%
same,pest or weed control at 250 g/ha,Avena fatua (AVEFA); [9],70%
same,pest or weed control at 250 g/ha,Avena fatua (AVEFA); [10],70%
Cc1cc(C)c(C2C(=O)CC(CCNS(=O)(=O)c3cccs3)C2=O)c(C)c1 (centres unmarked) [Compound A82],"Post-emergence herbicidal activity against wheat (percentage phytotoxicity), +CQC",wheat,0%
same,percent phytotoxicity (crop damage) to wheat at 250 g/ha,wheat,0%
same,pest or weed control at 250 g/ha,[1]; [3],40%
same,pest or weed control at 250 g/ha,[1]; [4],70%
same,pest or weed control at 250 g/ha,[2]; [5],20%
same,pest or weed control at 250 g/ha,[2]; [6],30%
same,pest or weed control at 250 g/ha,Lolium perenne (LOLPE); [7],50%
same,pest or weed control at 250 g/ha,Lolium perenne (LOLPE); [8],70%
same,pest or weed control at 250 g/ha,Avena fatua (AVEFA); [9],30%
same,pest or weed control at 250 g/ha,Avena fatua (AVEFA); [10],0%
CCS(=O)(=O)NCCC1CC(=O)C(c2c(C)cc(C)cc2C)C1=O (centres unmarked) [Compound A83],"Post-emergence herbicidal activity against wheat (percentage phytotoxicity), +CQC",wheat,10%
same,percent phytotoxicity (crop damage) to wheat at 250 g/ha,wheat,80%
same,pest or weed control at 250 g/ha,[1]; [3],80%
same,pest or weed control at 250 g/ha,[1]; [4],90%
same,pest or weed control at 250 g/ha,[2]; [5],70%
same,pest or weed control at 250 g/ha,[2]; [6],70%
same,pest or weed control at 250 g/ha,Lolium perenne (LOLPE); [7],70%
same,pest or weed control at 250 g/ha,Lolium perenne (LOLPE); [8],90%
same,pest or weed control at 250 g/ha,Avena fatua (AVEFA); [9],80%
same,pest or weed control at 250 g/ha,Avena fatua (AVEFA); [10],80%
